Source: patent publication US11040035B2, “3-oxo-2,6-diphenyl-2,3-dihydropyridazine-4-carboxamides” (BAYER PHARMA AKTIENGESELLSCHAFT, priority 2016, dated 2021)

Key:
AHR [1] = biological target: T1, AHR (Homo sapiens, UniProt P35869); test: In vitro assay 2: agonism in human cell line (transactivation assay)
T1 sequence (P35869 11-848): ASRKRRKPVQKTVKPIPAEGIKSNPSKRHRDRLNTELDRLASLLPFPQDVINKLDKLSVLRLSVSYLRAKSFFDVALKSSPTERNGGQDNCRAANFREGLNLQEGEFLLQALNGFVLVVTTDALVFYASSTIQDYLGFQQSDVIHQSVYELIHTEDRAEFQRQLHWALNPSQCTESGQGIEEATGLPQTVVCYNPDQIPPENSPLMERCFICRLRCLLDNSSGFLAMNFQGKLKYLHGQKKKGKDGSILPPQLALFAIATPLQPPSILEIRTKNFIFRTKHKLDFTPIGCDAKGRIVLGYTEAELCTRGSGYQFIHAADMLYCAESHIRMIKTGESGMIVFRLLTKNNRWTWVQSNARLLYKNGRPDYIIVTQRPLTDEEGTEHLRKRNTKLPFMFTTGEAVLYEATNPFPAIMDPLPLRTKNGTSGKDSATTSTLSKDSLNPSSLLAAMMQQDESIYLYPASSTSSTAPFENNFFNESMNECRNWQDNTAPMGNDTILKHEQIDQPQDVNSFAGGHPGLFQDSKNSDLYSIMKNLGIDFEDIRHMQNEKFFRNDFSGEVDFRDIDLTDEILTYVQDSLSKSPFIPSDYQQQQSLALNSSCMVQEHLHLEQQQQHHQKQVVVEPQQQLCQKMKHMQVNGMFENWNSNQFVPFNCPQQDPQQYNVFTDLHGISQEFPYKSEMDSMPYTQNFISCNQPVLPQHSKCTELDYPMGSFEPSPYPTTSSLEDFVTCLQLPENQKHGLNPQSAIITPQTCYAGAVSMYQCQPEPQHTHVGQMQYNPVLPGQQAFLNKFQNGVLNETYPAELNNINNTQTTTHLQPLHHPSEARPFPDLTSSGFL

AHR [2] = biological target: T1, AHR; test: In vitro assay 1: antagonism in human cell line (transactivation assay, kynurenic acid prestimulated); conditions: Assay 1: AHR-luc Hum Antagonism IC50 [M], 150 μM kynurenic acid, 20 hours, firefly luciferase
[3] = Assay 2: AHR-luc Hum Agonism IC50 [M], no kynurenic acid, 20 hours, firefly luciferase
[4] = read-out: Assay 2: AHR-luc Hum Agonism IC50, no kynurenic acid, 20 hours, firefly luciferase

In the case of `C[C@H](O)[C@H](C)NC(=O)c1cc(-c2ccc(OC(F)F)cc2)nn(-c2cccc(F)c2)c1=O` (relative stereo) [Example 143, rel-6-[4-(Difluoromethoxy)phenyl]-2-(3-fluorophenyl)-N-[(2S,3S)-3-hydroxybutan-2-yl]-3-oxo-2,3-dihydropyridazine-4-carboxamide], the IC50 (AHR [1]; [3]) is reported as > 2e-05 M and the IC50 (AHR [2]) is reported as 8.07e-08 M.

`COc1ccc(-c2cc(C(=O)N[C@@H]3CCCC[C@H]3O)c(=O)n(-c3cccc(F)c3)n2)cc1` (relative stereo) [Example 152, 2-(3-Fluorophenyl)-N-trans-2-hydroxycyclohexyl-6-(4-methoxyphenyl)-3-oxo-2,3-dihydropyridazine-4-carboxamide] was tested, and the IC50 (AHR [1]; [3]) was > 2e-05 M and the IC50 (AHR [2]) was 1.32e-07 M.

With `COc1ccc(-c2cc(C(=O)N[C@@H]3CCC[C@H]3O)c(=O)n(-c3cccc(F)c3)n2)cc1` (relative stereo) [Example 154, 2-(3-Fluorophenyl)-N-(trans-2-hydroxycyclopentyl)-6-(4-methoxyphenyl)-3-oxo-2,3-dihydropyridazine-4-carboxamide] the IC50 (AHR [1]; [3]) was > 2e-05 M and the IC50 (AHR [2]) was 1.69e-07 M.

For `O=C(N[C@@H]1CCCC(F)(F)[C@H]1O)c1cc(-c2ccc(Cl)cc2)nn(-c2cccc(F)c2)c1=O` (relative stereo) [Example 274, 6-(4-Chlorophenyl)-N-[(trans)-3,3-difluoro-2-hydroxycyclohexyl]-2-(3-fluorophenyl)-3-oxo-2,3-dihydropyridazine-4-carboxamide], the IC50 (AHR [1]; [3]) was > 2e-05 M and the IC50 (AHR [2]) was 2.06e-08 M.

`C[C@H](O)[C@H](C)NC(=O)c1cc(-c2ccc(Cl)c(F)c2)nn(-c2cccc(F)c2)c1=O` (relative stereo) [Example 290, rel-6-(4-Chloro-3-fluorophenyl)-2-(3-fluorophenyl)-N-[(2S,3S)-3-hydroxybutan-2-yl]-3-oxo-2,3-dihydropyridazine-4-carboxamide] was tested, and the IC50 (AHR [1]; [3]) was > 2e-05 M and the IC50 (AHR [2]) was 8.14e-08 M.

With `O=C(N[C@@H]1CCCC[C@@H]1O)c1cc(-c2ccc(Cl)c(F)c2)nn(-c2cccc(F)c2)c1=O` (relative stereo) [Example 291, 6-(4-Chloro-3-fluorophenyl)-2-(3-fluorophenyl)-N-(cis-2-hydroxycyclohexyl)-3-oxo-2,3-dihydropyridazine-4-carboxamide] the IC50 (AHR [1]; [3]) was > 2e-05 M and the IC50 (AHR [2]) was 8.51e-08 M.

In the case of `C[C@H](O)[C@H](C)NC(=O)c1cc(-c2ccc(Cl)c(Cl)c2)nn(-c2cccc(F)c2)c1=O` (relative stereo) [Example 305, rel-6-(3,4-Dichlorophenyl)-2-(3-fluorophenyl)-N-[(2S,3S)-3-hydroxybutan-2-yl]-3-oxo-2,3-dihydropyridazine-4-carboxamide], the IC50 (AHR [1]; [3]) is reported as > 2e-05 M and the IC50 (AHR [2]) is reported as 1.21e-07 M.

In the case of `C[C@H](O)[C@H](C)NC(=O)c1cc(-c2ccc(Cl)cc2)nn(-c2cc(Cl)cc(Cl)c2)c1=O` (relative stereo) [Example 312, 6-(4-Chlorophenyl)-2-(3,5-dichlorophenyl)-N-[(2S,3S)-3-hydroxybutan-2-yl]-3-oxo-2,3-dihydropyridazine-4-carboxamide], the IC50 (AHR [1]; [3]) is reported as > 2e-05 M and the IC50 (AHR [2]) is reported as 5.88e-07 M.

With `O=C(N[C@H]1COC[C@@H]1O)c1cc(-c2ccc(N3CCOCC3)cc2)nn(-c2cccc(F)c2)c1=O` (relative stereo) [Example 378, rel-2-(3-fluorophenyl)-N-[(3R,4S)-4-hydroxytetrahydrofuran-3-yl]-6-[4-(morpholin-4-yl)phenyl]-3-oxo-2,3-dihydropyridazine-4-carboxamide] the IC50 (AHR [1]; [3]) was > 2e-05 M and the IC50 (AHR [2]) was 2.48e-07 M.

In the case of `CN1C[C@H](O)[C@H](NC(=O)c2cc(-c3ccc(Cl)cc3)nn(-c3cccc(F)c3)c2=O)C1` (relative stereo) [Example 388, 6-(4-chlorophenyl)-2-(3-fluorophenyl)-N-[cis-4-hydroxy-1-methylpyrrolidin-3-yl]-3-oxo-2,3-dihydropyridazine-4-carboxamide], the IC50 (AHR [1]; [3]) is reported as > 2e-05 M and the IC50 (AHR [2]) is reported as 6.9e-07 M.

`COCC(O)CNC(=O)c1cc(-c2ccc(Cl)cc2)nn(-c2cccc(F)c2)c1=O` (single isomer, unassigned) [Example 32, 6-(4-Chlorophenyl)-2-(3-fluorophenyl)-N-(2-hydroxy-3-methoxypropyl)-3-oxo-2,3-dihydropyridazine-4-carboxamide] was tested, and the IC50 (AHR [1]; [3]) was > 2e-05 M and the IC50 (AHR [2]) was 1.81e-07 M.

`COCC(O)CNC(=O)c1cc(-c2ccc(Cl)cc2)nn(-c2cccc(F)c2)c1=O` (single isomer, unassigned) [Example 33, 6-(4-Chlorophenyl)-2-(3-fluorophenyl)-N-(2-hydroxy-3-methoxypropyl)-3-oxo-2,3-dihydropyridazine-4-carboxamide] was tested, and the IC50 (AHR [1]; [4]) was > 2e-05 M and the IC50 (AHR [2]) was 2.11e-07 M.

For `O=C(NC(CO)C1CCOC1)c1cc(-c2ccc(Cl)cc2)nn(-c2cccc(F)c2)c1=O` (single isomer, unassigned) [Example 39], the IC50 (AHR [1]; [3]) was > 2e-05 M and the IC50 (AHR [2]) was 2.76e-08 M.

With `O=C(NC(CO)C1CCOC1)c1cc(-c2ccc(Cl)cc2)nn(-c2cccc(F)c2)c1=O` (single isomer, unassigned) [Example 40, 6-(4-Chlorophenyl)-2-(3-fluorophenyl)-N-[2-hydroxy-1-(tetrahydrofuran-3-yl)ethyl]-3-oxo-2,3-dihydropyridazine-4-carboxamide] the IC50 (AHR [1]; [4]) was > 2e-05 M and the IC50 (AHR [2]) was 1.17e-07 M.

`O=C(NC(CO)C1CCOC1)c1cc(-c2ccc(Cl)cc2)nn(-c2cccc(F)c2)c1=O` (single isomer, unassigned) [Example 41, 6-(4-Chlorophenyl)-2-(3-fluorophenyl)-N-[2-hydroxy-1-(tetrahydrofuran-3-yl)ethyl]-3-oxo-2,3-dihydropyridazine-4-carboxamide] was tested, and the IC50 (AHR [1]; [4]) was > 2e-05 M and the IC50 (AHR [2]) was 2.15e-07 M.

`O=C(NC(CO)C1CCOC1)c1cc(-c2ccc(Cl)cc2)nn(-c2cccc(F)c2)c1=O` (single isomer, unassigned) [Example 42, 6-(4-Chlorophenyl)-2-(3-fluorophenyl)-N-[2-hydroxy-1-(tetrahydrofuran-3-yl)ethyl]-3-oxo-2,3-dihydropyridazine-4-carboxamide] was tested, and the IC50 (AHR [1]; [4]) was > 2e-05 M and the IC50 (AHR [2]) was 3.44e-07 M.

`O=C(NCC(O)C(F)(F)F)c1cc(-c2ccc(Cl)cc2)nn(-c2cc(F)cc(F)c2)c1=O` (single isomer, unassigned) [Example 46, 6-(4-Chlorophenyl)-2-(3,5-difluorophenyl)-3-oxo-N-(3,3,3-trifluoro-2-hydroxypropyl)-2,3-dihydropyridazine-4-carboxamide] was tested, and the IC50 (AHR [1]; [4]) was > 2e-05 M and the IC50 (AHR [2]) was 5.64e-08 M.

`Cc1ccc(-c2cc(C(=O)NCC(O)C(F)(F)F)c(=O)n(-c3cc(F)cc(F)c3)n2)cc1` (single isomer, unassigned) [Example 53, 2-(3,5-Difluorophenyl)-6-(4-methylphenyl)-3-oxo-N-(3,3,3-trifluoro-2-hydroxypropyl)-2,3-dihydropyridazine-4-carboxamide] was tested, and the IC50 (AHR [1]; [3]) was > 2e-05 M and the IC50 (AHR [2]) was 8.85e-09 M.

In the case of `O=C(NCC(O)C(F)(F)F)c1cc(-c2ccc(Cl)cc2)nn(-c2cccc(Cl)c2)c1=O` (single isomer, unassigned) [Example 63, 2-(3-Chlorophenyl)-6-(4-chlorophenyl)-3-oxo-N-(3,3,3-trifluoro-2-hydroxypropyl)-2,3-dihydropyridazine-4-carboxamide], the IC50 (AHR [1]; [3]) is reported as > 2e-05 M and the IC50 (AHR [2]) is reported as 8.99e-08 M.

With `O=C(NCC(O)C(F)(F)F)c1cc(-c2ccc(Cl)cc2)nn(-c2cccc(Cl)c2)c1=O` (single isomer, unassigned) [Example 64, 2-(3-Chlorophenyl)-6-(4-chlorophenyl)-3-oxo-N-(3,3,3-trifluoro-2-hydroxypropyl)-2,3-dihydropyridazine-4-carboxamide] the IC50 (AHR [1]; [4]) was > 2e-05 M and the IC50 (AHR [2]) was 3.66e-07 M.

In the case of `CC(C)C(O)CNC(=O)c1cc(-c2ccc(Cl)cc2)nn(-c2cccc(Cl)c2)c1=O` (single isomer, unassigned) [Example 68, 2-(3-Chlorophenyl)-6-(4-chlorophenyl)-N-(2-hydroxy-3-methylbutyl)-3-oxo-2,3-dihydropyridazine-4-carboxamide], the IC50 (AHR [1]; [3]) is reported as > 2e-05 M and the IC50 (AHR [2]) is reported as 3.7e-07 M.

In the case of `CC(C)C(O)CNC(=O)c1cc(-c2ccc(Cl)cc2)nn(-c2cccc(Cl)c2)c1=O` (single isomer, unassigned) [Example 69, 2-(3-Chlorophenyl)-6-(4-chlorophenyl)-N-(2-hydroxy-3-methylbutyl)-3-oxo-2,3-dihydropyridazine-4-carboxamide], the IC50 (AHR [1]; [4]) is reported as > 2e-05 M and the IC50 (AHR [2]) is reported as 4.41e-07 M.

`O=C(NCC(O)C(F)(F)F)c1cc(-c2ccc(Cl)cc2)nn(-c2ccccc2)c1=O` (single isomer, unassigned) [Example 77, 6-(4-chlorophenyl)-3-oxo-2-phenyl-N-(3,3,3-trifluoro-2-hydroxypropyl)-2,3-dihydropyridazine-4-carboxamide] was tested, and the IC50 (AHR [1]; [3]) was > 2e-05 M and the IC50 (AHR [2]) was 7.28e-08 M.
